The numbers were not newly measured in US20100021614A1, “COMPOSITION FOR PROMOTING BIOABSORPTION OF FLAVONOID, FOOD/BEVERAGE FOR PROMOTING BIOABSORPTION OF FLAVONOID USING THE COMPOSITION, AND METHOD FOR PRODUCTION OF THE FOOD/BEVERAGE” (priority 2006, published 2010), which cites them from elsewhere.

Molecules are shown by their SMILES.

For the data set the following is noted: Wakui et al., J. Chromatog., 575, 131-136 (1992).

`O=c1cc(-c2ccccc2)oc2cc(O)c(O)c(O)c12` [baicalein]: the “fraction of the amount administered that is absorbed” value is 1/300.
